Read-outs that look alike come from different tables or passages of the source.
Experiments:
MAGL [1] = target: MAGL (Homo sapiens (Human), UniProt Q99685); experiment: In vitro competitive activity-based protein profiling (gel-based, FP-Rh or HT-01 probe); type: biochemical
Description: In Vitro Competitive Activity-Based Protein Profiling.
Proteomes (human prefrontal cortex or cell membrane fractions) (50 μL, 1.0 mg/mL total protein concentration) were preincubated with varying concentrations of inhibitors at 37° C. After 30 min, FP-Rh or HT-01 (1.0 μL, 50 μM in DMSO) was added and the mixture was incubated for another 30 min at room temperature. Reactions were quenched with SDS loading buffer (15 μL—4×) and run on SDS-PAGE.

MAGL [2] = target: T1, MAGL (Mus musculus (Mouse), UniProt O35678); experiment: Mouse brain proteomes from inhibitor treated mice (oral gavage, brain MAGL activity 4 h after administration); type: in vivo; conditions: 5 mg/kg oral gavage
Description: Preparation of Mouse Brain Proteomes from Inhibitor Treated Mice.
Inhibitors were administered to wild-type C57B1/6J by oral gavage in a vehicle of polyethylene glycol.

MAGL [3] = target: T1, MAGL; experiment: In vitro competitive activity-based protein profiling, mouse brain proteome; type: biochemical; conditions: for inhibition at 1 µM: mouse; for IC50: mouse brain
[4] = human PC3, read-out: MAGL % Inhibition at 1 μM (human PC3)
[5] = human PFC (prefrontal cortex), read-out: MAGL % Inhibition at 1 μM (human PFC)
[6] = human PC3, read-out: MAGL Human PC3 (IC50)

Sequence of MAGL (Homo sapiens (Human), UniProt Q99685) (Q99685 whole entry): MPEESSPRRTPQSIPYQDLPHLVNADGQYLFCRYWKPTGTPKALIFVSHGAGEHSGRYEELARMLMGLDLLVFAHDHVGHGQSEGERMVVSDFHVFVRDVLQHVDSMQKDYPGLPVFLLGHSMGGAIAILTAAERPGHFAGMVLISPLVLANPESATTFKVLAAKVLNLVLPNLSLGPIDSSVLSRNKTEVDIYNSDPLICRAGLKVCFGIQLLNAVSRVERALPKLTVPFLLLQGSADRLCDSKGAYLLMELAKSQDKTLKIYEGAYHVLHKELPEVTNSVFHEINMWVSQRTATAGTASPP
T1 sequence (O35678 whole entry): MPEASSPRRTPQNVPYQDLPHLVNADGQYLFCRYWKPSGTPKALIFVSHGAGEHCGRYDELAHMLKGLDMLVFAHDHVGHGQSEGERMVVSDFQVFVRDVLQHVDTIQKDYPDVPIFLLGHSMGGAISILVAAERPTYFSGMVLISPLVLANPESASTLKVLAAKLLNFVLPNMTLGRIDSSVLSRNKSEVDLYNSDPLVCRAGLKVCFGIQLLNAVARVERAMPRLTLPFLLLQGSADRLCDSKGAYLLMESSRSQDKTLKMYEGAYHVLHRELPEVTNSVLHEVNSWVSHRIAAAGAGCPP

SMILES	inhibition at 1 µM (MAGL [1]; [4]) [%]	inhibition at 1 µM (MAGL [1]; [5]) [%]	IC50 (MAGL [1]; [6]) [nM]	MAGL % Inhibition at 5 mg/kg (Mouse) (MAGL [2])	inhibition at 1 µM (MAGL [3]) [%]	IC50 (MAGL [1]; human PFC (prefrontal cortex), read-out: MAGL Human PFC (IC50)) [nM]	IC50 (MAGL [3]) [nM]
CC1(NC(=O)c2nnc3n2CCN(C2CCOC2)C3)CCN(C(=O)OC(C(F)(F)F)C(F)(F)F)CC1 (stereo not drawn) [Example 208, 1,1,1,3,3,3-Hexafluoropropan-2-yl 4-methyl-4-(7-(THF-3-yl)-5,6,7,8-tetrahydro-[1,2,4]triazolo [4,3-a]pyrazine-3-carboxamido) piperidine-1-carboxylate]	> 75	> 75	< 100	### (% inhibition is greater than or equal to 75%)	> 75	–	–
O=C(OC(C(F)(F)F)C(F)(F)F)N1CCC2(CCCN2C(=O)c2cn3c(n2)CN(C2CC2)CC3)CC1 [Example 2, 1,1,1,3,3,3-Hexafluoropropan-2-yl 1-(7-cyclopropyl-5,6,7,8-tetrahydroimidazo[1,2-a]pyrazine-2-carbonyl)-1,8-diazaspiro[4.5]decane-8-carboxylate]	> 75	> 75	< 100	### (% inhibition is greater than or equal to 75%)	> 75	< 100	< 100
CC(C)Oc1cnc(C2(C(=O)N3CCCC34CCN(C(=O)OC(C(F)(F)F)C(F)(F)F)CC4)CC2)nc1 [Example 194, 1,1,1,3,3,3-Hexafluoropropan-2-yl 1-(1-(5-isopropoxypyrimidin-2-yl)cyclopropane-1-carbonyl)-1,8-diazaspiro [4.5]decane-8-carboxylate]	> 75	> 75	< 100	### (% inhibition is greater than or equal to 75%)	> 75	–	–
Cc1c(CN2CCCC23CCN(C(=O)OC(C(F)(F)F)C(F)(F)F)CC3)[nH]c2ccc(F)cc12 [Example 58, 1,1,1,3,3,3-Hexafluoropropan-2-yl 1-((5-fluoro-3-methyl-1H-indol-2-yl)methyl)-1,8-diazaspiro[4.5] decane-8-carboxylate]	–	–	< 100	### (% inhibition is greater than or equal to 75%)	> 75	–	< 100
CC1(NC(=O)c2nnc3n2CCN(C2CC2)C3)CCN(C(=O)OC(C(F)(F)F)C(F)(F)F)CC1 [Example 204, 1,1,1,3,3,3-Hexafluoropropan-2-yl 4-(7-cyclopropyl-5,6,7,8-tetrahydro-[1,2,4]triazolo[4,3-a]pyrazine-3-carboxamido)-4-methylpiperidine-1-carboxylate]	> 75	> 75	< 100	### (% inhibition is greater than or equal to 75%)	> 75	–	–
Cc1ccc2nc(Cl)c(CN3CCCC34CCN(C(=O)OC(C(F)(F)F)C(F)(F)F)CC4)cc2c1 [Example 49, 1,1,1,3,3,3-Hexafluoropropan-2-yl 1-((2-chloro-6-methylquinolin-3-yl)methyl)-1,8-diazaspiro[4.5] decane-8-carboxylate]	–	–	< 100	### (% inhibition is greater than or equal to 75%)	> 75	–	< 100
O=C(OC(C(F)(F)F)C(F)(F)F)N1CCC2(CCCN2C(=O)C2(c3ncc(F)cn3)CC2)CC1 [Example 180, 1,1,1,3,3,3-Hexafluoropropan-2-yl 1-(1-(5-fluoropyrimidin-2-yl)cyclopropane-1-carbonyl)-1,8-diazaspiro[4.5] decane-8-carboxylate]	> 75	> 75	< 100	### (% inhibition is greater than or equal to 75%)	> 75	–	–
O=C(OC(C(F)(F)F)C(F)(F)F)N1CCC2(CCCN2C(=O)C2(c3cccnn3)CC2)CC1 [Example 179, 1,1,1,3,3,3-Hexafluoropropan-2-yl 1-(1-(pyridazin-3-yl)cyclopropane-1-carbonyl)-1,8-diazaspiro [4.5]decane-8-carboxylate]	> 75	> 75	< 100	## (% inhibition is less than 75% and greater than 25%)	> 75	–	–
CN(C(=O)C1(c2cnccn2)CC1)C1(C)CCN(C(=O)OC(C(F)(F)F)C(F)(F)F)CC1 [Example 176, 1,1,1,3,3,3-Hexafluoropropan-2-yl 4-methyl-4-(N-methyl-1-(pyrazin-2-yl)cyclopropane-1-carboxamido) piperidine-1-carboxylate]	> 75	> 75	< 100	# (% inhibition less or equal to 25%)	> 75	–	–
CC(C)n1cc(CN2CCCC23CCN(C(=O)OC(C(F)(F)F)C(F)(F)F)CC3)c(-c2ccccc2F)n1 [Example 221, 1,1,1,3,3,3-Hexafluoropropan-2-yl 1-((3-(2-fluorophenyl)-1-isopropyl-1H-pyrazol-4-yl)methyl)-1,8-diazaspiro[4.5] decane-8-carboxylate]	–	–	< 100	### (% inhibition is greater than or equal to 75%)	> 75	–	< 100
CC(C)(O)CN1CCn2cc(C(=O)N3CCCC34CCN(C(=O)OC(C(F)(F)F)C(F)(F)F)CC4)nc2C1 [Example 21, 1,1,1,3,3,3-Hexafluoropropan-2-yl 1-(7-(2-hydroxy-2-methylpropyl)-5,6,7,8-tetrahydroimidazo[1,2-a]pyrazine-2-carbonyl)-1,8-diazaspiro[4.5]decane-8-carboxylate]	> 75	> 75	< 100	# (% inhibition less or equal to 25%)	> 75	–	–

— patent US11142526B2, “Spirocycle compounds and methods of making and using same” (H. Lundbeck A/S, priority 2017, dated 2021)
